Data from paper PMC10801772 (The Journal of Pharmacology and Experimental Therapeutics, 2024).
“And” between values parts separate entries of the source, which are not always exact repeats. Equal values may be shown once. Read-outs that look alike come from different tables or passages of the source.

Assays:
[1] = system: mice at terminal stages of botulism (2.2x LD50 BoNT/A, i.v.); conditions: mouse, in vivo
[2] = cited from earlier work; for Brain penetration: in vivo
healthy mice = conditions: mouse, in vivo
[3] = system: mice at terminal stages of botulism (2.2x LD50 BoNT/A, i.v.); conditions: mouse, in vivo; remark: listed apart in the source
patients with LEMS = conditions: human, in vivo; cited from earlier work
[4] = system: animal models of botulism; conditions: in vivo; cited from earlier work
[5] = mouse, in vivo, sc, 2 mg/kg; cited from earlier work
[6] = in vivo, po; cited from earlier work

With `Nc1c(F)cncc1F` [3,5DF-4AP, 4-amino-3,5-difluoropyridine] the “Effects on ventilatory parameters (MV, TV, RR)” value [1] was “indistinguishable from vehicle”.
In the case of `Nc1cncc(N)c1N` [3,4,5-TAP, 3,4,5-triaminopyridine], the Brain penetration [2] is listed as “poor brain penetration” and the “Relative effects on TV versus RR” value [1] is listed as “increased TV and RR by roughly equal proportions”.
For `Nc1ccnc(F)c1` [2F-4AP, 4-amino-2-fluoropyridine], the “Effects on ventilatory parameters (MV, TV, RR)” value [1] was “indistinguishable from vehicle”.
For `Nc1ccnc(N)c1` [2,4-DAP, 2,4-diaminopyridine], the Brain penetration [2] is given as “poor brain penetration” and the “Relative effects on TV versus RR” value [1] is given as “increased TV and RR by roughly equal proportions”.
In the case of `[2H]c1nc([2H])c(N)c(N)c1[2H]` [3,4-DAP-d3, 3,4-diaminopyridine-d3], the “CNS permeability / brain penetration” value ([2]; not told) is given as “low central nervous system (CNS) permeability” and the “Relative effects on TV versus RR” value [1] is given as “more potent effects on TV”.
For `[2H]c1nc([2H])c([2H])c(N)c1[2H]` [4-AP-d4, 4-aminopyridine-d4], the “Relative effects on TV versus RR” value [1] was “increased TV and RR by roughly equal proportions”.
In the case of `Nc1ccncc1` [4-AP, 4-aminopyridine], the “Blood brain barrier permeability relative to 3,4-DAP” value ([2]; not told) is listed as “approximately sixfold greater”, the “Effect on MV” value (healthy mice) is listed as “no changes in MV” and the “Effect on RR” value (healthy mice) is listed as “significantly increased RR”. The “Effect on TV” value (healthy mice) was “concomitant reductions in TV” and the “Relative effects on TV versus RR” value [1] was “increased TV and RR by roughly equal proportions”.
For `Nc1ccncc1N` [3,4-DAP, 3,4-diaminopyridine], the “Effect on MV” value (healthy mice) was “no changes in MV”, the “Effect on RR” value (healthy mice) was “significantly increased RR” and the “Effect on TV” value (healthy mice) was “concomitant reductions in TV”. For the same compound, the Blood gas levels [3] was “did not improve”, the Lactate [3] was “did not show any significant improvement” and the “Time to improvement in blood gas levels” value [3] was 45 min and < 30 min. The “Time to reversal of respiratory acidosis (pCO2, HCO3-, pH, lactate)” value [3] was at most 30 minutes, the “pCO2, pH and HCO3-” value [3] was “improved” and the “Effect on pO2 levels” value ([3]; sc) was “Neither intoxication nor 3,4-DAP treatment had an effect on pO2 levels”. For the same compound, the “Exposure needed for typical patients with LEMS” value (patients with LEMS) was 32 ng/mL, the “Exposure required for reversal of botulism symptoms” value [4] was 125 ng/mL and the “Effect on ventilatory parameters (TV, RR, MV, mid-expiratory flow, peak inspiratory flow, peak expiratory flow, expired volume, enhanced pause)” value [1] was “significantly improved”. The “Lowest dose to produce an unambiguous peak response in MV” value [1] was 0.25 mg/kg, the “Relative effects on TV versus RR” value [1] was “more potent effects on TV” and the “Time after treatment at which MV significantly improved” value [1] was 10 min. For the same compound, the “Time after treatment to maximum effect on MV” value [1] was 25 to 30 min, the “Time after which ventilatory parameters began to decline” value [1] was “approximately 30 minutes” and the “Time up to which all ventilatory parameters remained significantly improved compared with vehicle” value [1] was 90 min. For the same compound, the “Doses that increased both ventilatory parameters and respiration” value ([1]; sc) was at least 0.25 mg/kg and the Maximum blood levels [5] was 840 ng/mL.
In the case of `Nc1ccncc1N` [amifampridine], the Maximum blood levels [6] is given as 38.6 ± 9.2 ng/mL.
For `Nc1ccncc1F` [3F-4AP, 4-amino-3-fluoropyridine], the CNS permeability ([2]; not told) is given as “CNS-permeable”, the “Relative effects on TV versus RR” value [1] is given as “more potent effects on RR” and the “Symptomatic benefits compared with the other effective aminopyridines” value [1] is given as “modest and short in duration”.
